According to US7615651B2, “Diaryl, dipyridinyl and aryl-pyridinyl derivatives and uses thereof” (Pfizer Inc., priority 2006, dated 2009):
Where two headings read alike, the source gives them in different places.

Tests used:
Assay type in all cases: biochemical
opioid receptor delta = target: T1, opioid receptor delta (Homo sapiens, UniProt P41143); assay: GTPγ[35S] binding assay, antagonism of BW-373U86
T1 construct: expressed in transfected cells
Procedure: (§1) Membranes were prepared from cells as described (Bass et al, 1996). GTPγ[5S] binding assays were performed in a 96 well FlashPlate™ format in duplicate using […] GTPγ[^35S] and 5 μg membrane per well in assay buffer composed of 50 mM Tris HCl, pH 7.4, 5 mM MgCl2, 1 mM EDTA, 100 mM NaCl, 30 μM GDP, 0.1% bovine serum albumin and the following protease inhibitors: 100 μg/ml bacitracin, 100 μg/ml benzamidine, 5 μg/ml aprotinin, 5 μg/ml leupeptin. The assay mix was then incubated at 30° C. with increasing concentrations of antagonist (10^−10 M to 10^−5 M) for 10 minutes and challenged with the agonists BW-373U86 (1 nM), dynorphin-A (10 nM), […] (1 μM) for opioid receptors delta, kappa, and mu, respectively. The assays were performed at 30° C. for one hour. The FlashPlates were then centrifuged at 2000×g for 10 minutes. Stimulation of GTPγ[^35S] binding was then quantified using a Wallac Microbeta and Ki calculations were done using Prism™ by Graphpad.

opioid receptor kappa = target: T2, opioid receptor kappa (Homo sapiens, UniProt P41145); assay: GTPγ[35S] binding assay, antagonism of dynorphin-A
T2 construct: expressed in transfected cells
Procedure: as §1

opioid receptor mu = target: T3, opioid receptor mu (Homo sapiens, UniProt P35372); assay: GTPγ[35S] binding assay, antagonism of endorphin
T3 construct: expressed in transfected cells
Procedure: as §1

[1] = read-out: Delta functional (GTPγ[35S] binding Ki)
[2] = read-out: Kappa functional (GTPγ[35S] binding Ki)
[3] = read-out: Mu functional (GTPγ[35S] binding Ki)
[4] = read-out: Delta functional Ki (GTPγ[35S] binding)
[5] = read-out: Kappa functional Ki (GTPγ[35S] binding)
[6] = read-out: Mu functional Ki (GTPγ[35S] binding)

T1 sequence (P41143 whole entry): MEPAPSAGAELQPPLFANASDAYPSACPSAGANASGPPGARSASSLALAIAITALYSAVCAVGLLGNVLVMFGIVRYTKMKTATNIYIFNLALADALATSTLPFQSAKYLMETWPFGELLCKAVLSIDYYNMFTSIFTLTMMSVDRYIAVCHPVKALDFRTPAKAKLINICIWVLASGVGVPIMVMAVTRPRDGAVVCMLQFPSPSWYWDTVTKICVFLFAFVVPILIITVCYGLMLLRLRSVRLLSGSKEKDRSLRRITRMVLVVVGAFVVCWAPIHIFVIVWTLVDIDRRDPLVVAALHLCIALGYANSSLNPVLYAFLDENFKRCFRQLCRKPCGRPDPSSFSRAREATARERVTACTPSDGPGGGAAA
T3 sequence (P35372 whole entry): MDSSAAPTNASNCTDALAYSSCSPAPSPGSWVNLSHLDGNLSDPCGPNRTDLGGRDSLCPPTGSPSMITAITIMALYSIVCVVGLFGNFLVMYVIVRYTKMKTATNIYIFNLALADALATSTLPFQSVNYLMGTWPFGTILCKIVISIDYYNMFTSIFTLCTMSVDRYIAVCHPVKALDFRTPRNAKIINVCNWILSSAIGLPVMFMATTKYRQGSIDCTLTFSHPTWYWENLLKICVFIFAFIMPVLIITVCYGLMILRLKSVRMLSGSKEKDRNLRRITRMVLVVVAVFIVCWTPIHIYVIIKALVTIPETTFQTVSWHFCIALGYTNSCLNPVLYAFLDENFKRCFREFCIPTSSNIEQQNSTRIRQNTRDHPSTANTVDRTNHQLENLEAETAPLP
T2 sequence (P41145 whole entry): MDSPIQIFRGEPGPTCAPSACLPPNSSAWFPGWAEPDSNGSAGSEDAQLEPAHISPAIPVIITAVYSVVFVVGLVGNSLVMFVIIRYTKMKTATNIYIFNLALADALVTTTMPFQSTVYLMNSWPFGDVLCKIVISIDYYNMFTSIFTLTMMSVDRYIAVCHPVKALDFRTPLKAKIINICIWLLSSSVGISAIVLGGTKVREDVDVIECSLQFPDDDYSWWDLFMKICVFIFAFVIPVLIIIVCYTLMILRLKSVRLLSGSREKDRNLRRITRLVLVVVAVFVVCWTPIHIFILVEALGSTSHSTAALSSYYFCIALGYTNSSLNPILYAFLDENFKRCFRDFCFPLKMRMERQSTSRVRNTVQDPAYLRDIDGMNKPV

Row | Compound | Ki (opioid receptor delta; [1]) [nM] | Ki (opioid receptor kappa; [2]) [nM] | Ki (opioid receptor mu; [3]) [nM] | Ki (opioid receptor delta; [4]) [nM] | Ki (opioid receptor kappa; [5]) [nM] | Ki (opioid receptor mu; [6]) [nM]
1 | Cc1cc(C(N)=O)ccc1-c1ccc(CNCCOc2ccccc2)cc1 [4B-16] | 0.751 | 7.65 | 2.82 | – | – | –
2 | Cc1cc(C(N)=O)ccc1-c1ccc(CNCc2cccc(F)c2)cc1 [4B-17] | 1.13 | 1.21 | 2.56 | – | – | –
3 | Cc1cc(C(N)=O)ccc1-c1ccc(CNCc2ccc3c(c2)CC(C)(C)O3)cc1 [4B-18] | 2.46 | 18.7 | 5.72 | – | – | –
4 | Cc1cc(C(N)=O)ccc1-c1ccc(CNC(C)(C)c2ccccc2)cc1 [4B-19] | 19.5 | 23.4 | 126 | – | – | –
5 | Cc1cc(C(N)=O)ccc1-c1ccc(CNCc2ccc3c(c2)CCO3)cc1 [4B-20] | 4.21 | 34.5 | 7.1 | – | – | –
6 | Cc1cc(C(N)=O)ccc1-c1ccc(CNC2CCc3ccccc32)cc1 (stereo not drawn) [4B-21] | 1.25 | 0.872 | 1.5 | – | – | –
7 | Cc1cc(C(N)=O)ccc1-c1ccc(CNC2CCOc3c(C)cccc32)cc1 (stereo not drawn) [4B-22] | 5.1 | 4.92 | 7.56 | – | – | –
8 | Cc1cc(C(N)=O)ccc1-c1ccc(CNC2(c3cccc(Cl)c3)CC2)cc1 [4B-23] | 46.3 | 14.2 | 266 | – | – | –
9 | Cc1cc(C(N)=O)ccc1-c1ccc(CNC2(c3ccccc3)CC2)cc1 [4B-24] | 22.7 | 400 | 1290 | – | – | –
10 | Cc1cc(C(N)=O)ccc1-c1ccc(CNC(C)(C)c2cccc(Cl)c2)cc1 [4B-25] | 22.6 | 6.11 | 37.6 | – | – | –
11 | Cc1cc(C(N)=O)ccc1-c1ccc(CNCc2ccccc2F)cc1 [4B-26] | 5.72 | 3.32 | 4.55 | – | – | –
12 | Cc1cc(C(N)=O)ccc1-c1ccc(CNC(C)c2ccc3ccccc3c2)cc1 (stereo not drawn) [4B-27] | 2.98 | 2.86 | 14.3 | – | – | –

Further lines, results first:

Row | Ki (opioid receptor delta; [1]) [nM] | Ki (opioid receptor kappa; [2]) [nM] | Ki (opioid receptor mu; [3]) [nM] | Ki (opioid receptor delta; [4]) [nM] | Ki (opioid receptor kappa; [5]) [nM] | Ki (opioid receptor mu; [6]) [nM] | Compound
13 | 26.3 | 4.12 | 26.1 | – | – | – | Cc1cc(C(N)=O)ccc1-c1ccc(CN[C@@H]2CCCc3ccccc32)cc1 [4B-28]
14 | 6.12 | 6.1 | 16.2 | – | – | – | CC(C)CCNCc1ccc(-c2ccc(C(N)=O)cc2Cl)cc1 [4B-29]
15 | 0.378 | 0.842 | 0.41 | – | – | – | NC(=O)c1ccc(-c2ccc(CNC3Cc4ccccc4C3)cc2)c(Cl)c1 [4B-30]
16 | 1.09 | 3.71 | 4.05 | – | – | – | Cc1cc(C(N)=O)ccc1-c1ccc(CNCC2Cc3ccccc3O2)cc1 (stereo not drawn) [4B-31]
17 | 0.0696 | 0.14 | 0.0492 | – | – | – | Cc1cc(C(N)=O)cc(C)c1-c1ccc(CNC2Cc3ccccc3C2)cc1 [4B-32]
18 | 2.49 | 0.911 | 4.95 | – | – | – | Cc1cc(C(N)=O)ccc1-c1ccc(CN[C@@H]2CCc3ccccc32)cc1 [4B-33]
19 | – | – | – | 1.09 | 0.512 | 1.08 | Cc1cc(C(N)=O)ccc1-c1ccc(CN[C@H]2CCc3ccccc32)cc1 [4B-34]
20 | – | – | – | 0.687 | 7.13 | 1.32 | Cc1cc(C(N)=O)ccc1-c1ccc(CNCC2Cc3ccccc3C2)cc1 [4B-35]
21 | – | – | – | 0.453 | 6.5 | 1.45 | Cc1cc(C(N)=O)ccc1-c1ccc(CNCC2CCc3ccccc3O2)cc1 (stereo not drawn) [4B-36]
22 | – | – | – | 60.3 | 4.61 | 13.7 | NC(=O)c1ccc(-c2ccc(CNCCC3CCOCC3)cc2)c(Cl)c1 [4B-37]
23 | – | – | – | 5.59 | 1.14 | 3.33 | NC(=O)c1ccc(-c2ccc(CN[C@H]3CCc4ccccc43)cc2)c(Cl)c1 [4B-38]
24 | – | – | – | 0.612 | 1.28 | 1.87 | NC(=O)c1ccc(-c2ccc(CNCCC3CCCC3)cc2)c(Cl)c1 [4B-39]
25 | – | – | – | 20.4 | 9.05 | 48.3 | Cc1cc(C(N)=O)ccc1-c1ccc(CNCC2CCOCC2)cc1 [4B-40]
26 | – | – | – | 14.1 | 13.5 | 61.4 | Cc1cc(C(N)=O)ccc1-c1ccc(CN[C@H](C)c2ccccc2)cc1 [4B-41]
27 | – | – | – | 22.2 | 6.19 | 65.4 | Cc1cc(C(N)=O)ccc1-c1ccc(CN[C@@H](C)c2ccccc2)cc1 [4B-42]
28 | – | – | – | 10.6 | 8.95 | 70.2 | Cc1cc(C(N)=O)ccc1-c1ccc(CNCc2cccnc2)cc1 [4B-43]
29 | – | – | – | 26.1 | 25.7 | 61.7 | Cc1cc(C(N)=O)ccc1-c1ccc(CNCc2ccccn2)cc1 [4B-44]
